Source: patent US11608323B2 (SYNGENTA LIMITED, priority 2013, dated 2023)

What was measured:
Assay type in all cases: in vivo
ABUTH [1] = test: Pre-emergence herbicidal activity, glasshouse pot test; conditions: rate 1000 g/Ha, evaluated after 13 days, scale 0-5
In short: (§1)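 Seeds sown in standard soil in pots, sprayed one day later (pre-emergence) with aqueous solution from acetone/water (50:50) formulation with 0.5% Tween 20. Glasshouse at 24/16 °C day/night, 14 h light, 65% humidity, watered twice daily. Damage scored after 13 days, 0 (none) to 5 (total).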

ALOMY [2] = test: as above; conditions: rate 1000 g/Ha, evaluated after 13 days, scale 0-5
In short: as §1

AMARE [3] = test: as above; conditions: rate 1000 g/Ha, evaluated after 13 days, scale 0-5
In short: as §1

ECHCG [4] = test: as above; conditions: rate 1000 g/Ha, evaluated after 13 days, scale 0-5
In short: as §1

SETFA [5] = test: as above; conditions: rate 1000 g/Ha, evaluated after 13 days, scale 0-5
In short: as §1

ZEAMX [6] = test: as above; conditions: rate 1000 g/Ha, evaluated after 13 days, scale 0-5
In short: as §1

ABUTH [7] = test: Post-emergence herbicidal activity, glasshouse pot test; conditions: Abutilon theophrasti; application post-emergence; rate 1000 g/Ha; evaluated after 13 days
In short: (§2)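 Visual herbicidal injury (0 = no damage, 5 = plant killed) recorded 13 days post-treatment. Treatment consisted of a single spray onto emerged seedlings at day 8; conditions before and after were 24/16 °C, 14 h light, 65% humidity.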

ALOMY [8] = test: as above; conditions: Alopecurus myosuroides; application post-emergence; rate 1000 g/Ha; evaluated after 13 days
In short: as §2

AMARE [9] = test: as above; conditions: Amaranthus retroflexus; application post-emergence; rate 1000 g/Ha; evaluated after 13 days
In short: as §2

ECHCG [10] = test: as above; conditions: Echinochloa crus-galli; application post-emergence; rate 1000 g/Ha; evaluated after 13 days
In short: as §2

SETFA [11] = test: as above; conditions: Setaria faberi; application post-emergence; rate 1000 g/Ha; evaluated after 13 days
In short: as §2

ZEAMX [12] = test: as above; conditions: Zea mays; application post-emergence; rate 1000 g/Ha; evaluated after 13 days
In short: as §2

Compound	ABUTH damage score, application pre-emergence (ABUTH [1])	ALOMY damage score, application pre-emergence (ALOMY [2])	AMARE damage score, application pre-emergence (AMARE [3])	ECHCG damage score, application pre-emergence (ECHCG [4])	SETFA damage score, application pre-emergence (SETFA [5])	ZEAMX damage score, application pre-emergence (ZEAMX [6])	Post-emergence herbicidal activity ABUTH (damage score 0-5) (ABUTH [7])	Post-emergence herbicidal activity ALOMY (damage score 0-5) (ALOMY [8])	Post-emergence herbicidal activity AMARE (damage score 0-5) (AMARE [9])	Post-emergence herbicidal activity ECHCG (damage score 0-5) (ECHCG [10])	Post-emergence herbicidal activity SETFA (damage score 0-5) (SETFA [11])	Post-emergence herbicidal activity ZEAMX (damage score 0-5) (ZEAMX [12])
CCOC1C(O)N(c2cc(C(F)(F)F)c(-c3ccccc3)cn2)C(=O)N1C (stereo not drawn) [Compound A13]	5	3	5	3	3	1	5	4	5	5	5	0
CC1C(O)N(c2cc(C(F)(F)F)ccn2)C(=O)N1C (stereo not drawn) [Compound A19, 4-hydroxy-1,5-dimethyl-3-[4-(trifluoromethyl)-2-pyridyl]imidazolidin-2-one]	5	4	5	5	5	3	5	5	5	5	5	4
COc1cncc(-c2cnc(N3C(=O)N(C)C(C)C3O)cc2C(F)(F)F)c1 (stereo not drawn) [Compound A20]	5	4	5	4	5	5	5	5	5	5	5	4
COc1ccc(-c2cnc(N3C(=O)N(C)C(C)C3O)cc2C(F)(F)F)cn1 (stereo not drawn) [Compound A21]	5	3	5	5	5	2	5	5	5	5	5	3
COc1ncc(-c2cnc(N3C(=O)N(C)C(C)C3O)cc2C(F)(F)F)cn1 (stereo not drawn) [Compound A22]	5	4	5	5	5	3	5	5	5	5	5	5
COc1ccncc1-c1cnc(N2C(=O)N(C)C(C)C2O)cc1C(F)(F)F (stereo not drawn) [Compound A23]	2	3	5	2	3	1	5	4	5	2	4	2
Cc1ccc(-c2cnc(N3C(=O)N(C)C(C)C3O)cc2C(F)(F)F)cn1 (stereo not drawn) [Compound A24]	5	4	5	5	4	3	5	5	5	5	5	4
CC1C(O)N(c2cc(C(F)(F)F)c(I)cn2)C(=O)N1C (stereo not drawn) [Compound A25, 5-hydroxy-1-[5-iodo-4-(trifluoromethyl)-2-pyridyl]-3,4-dimethyl-imidazolidin-2-one]	5	4	5	5	4	2	5	5	5	5	5	5
CCOC1C(O)N(c2cc(C(F)(F)F)ccn2)C(=O)N1CC (stereo not drawn) [Compound A29]	5	1	5	1	2	1	5	4	5	4	3	2
C=CCC1C(O)N(c2cc(C(F)(F)F)ccn2)C(=O)N1C (stereo not drawn) [Compound A32, 5-allyl-4-hydroxy-1-methyl-3-[4-(trifluoromethyl)-2-pyridyl]imidazolidin-2-one]	5	4	5	5	4	2	5	5	5	5	5	2
CN1C(=O)N(c2cc(C(F)(F)F)ccn2)C(O)C1C(F)(F)F (stereo not drawn) [Compound A33, 4-hydroxy-1-methyl-5-(trifluoromethyl)-3-[4-(trifluoromethyl)-2-pyridyl]imidazolidin-2-one]	4	3	5	2	3	0	5	4	3	1	2	1
CON1CC(O)N(c2cc(C(F)(F)F)ccn2)C1=O (stereo not drawn) [Compound A36]	1	2	5	4	2	0	1	4	5	5	3	2
CN1C(=O)N(c2cc(C(F)(F)F)ccn2)C(O)C1OCC(F)(F)F (stereo not drawn) [Compound A39]	5	4	5	3	2	1	5	5	5	5	5	1
